Source: patent publication US8710233B2 (Gruenenthal GmbH, priority 2005, dated 2014)
Where two headings read alike, the source gives them in different places.

Key:
[1] = tested on: capsaicin induced hypothermie; experiment: Hypothermie assay in the mouse (capsaicin induced hypothermie); assay type: in vivo; details: as printed in this column, read-out: inhibition hypothermie (n = 5)
[2] = tested on: formaldehyde induced nociceptive behaviour; experiment: Formaldehyde test in mice, second (late) phase; assay type: in vivo, mouse; details: mouse, read-out: inhibition formaldehyde test (n = 10)
vanilloid receptor (VR1) = biological target: T1, vanilloid receptor (VR1) (Homo sapiens, UniProt Q8NER1); experiment: FLIPR Ca2+ influx assay on CHO K1 cells transfected with the VR1 gene (pharmacological method II); assay type: cell-based
T1 construct: expressed in transfected cells; host or cells: CHO K1 cells (ECACC), stably transfected

[3] = biological target: T2, vanilloid receptor 1 (VR1/TRPV1) of the rat species (Rattus norvegicus, UniProt O35433); experiment: FLIPR Ca2+ influx assay on rat dorsal root ganglia cells (pharmacological method I); assay type: cell-based
T2 construct: The spinal column is removed from decapitated rats; from tissue; host or cells: primary cells dissociated from rat dorsal root ganglia
How it was run: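 Primary rat dorsal root ganglion cells loaded with 2 μM Fluo-4, Ca2+ influx read on FLIPR as peak fluorescence. Triplicates, at least 3 independent experiments.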

VR1/TRPV1 receptor = VR1/TRPV1 receptor (Homo sapiens, UniProt Q8NER1); experiment: IC50 (human) after pH stimulus; assay type: cell-based; details: Table 2
[4] = Table 2, displacement of capsaicin (100 nM), Cheng-Prusoff, read-out: Ki (human)
[5] = Table 2, displacement of capsaicin (100 nM), Cheng-Prusoff, read-out: Ki (rat)

T1 sequence (Q8NER1 whole entry): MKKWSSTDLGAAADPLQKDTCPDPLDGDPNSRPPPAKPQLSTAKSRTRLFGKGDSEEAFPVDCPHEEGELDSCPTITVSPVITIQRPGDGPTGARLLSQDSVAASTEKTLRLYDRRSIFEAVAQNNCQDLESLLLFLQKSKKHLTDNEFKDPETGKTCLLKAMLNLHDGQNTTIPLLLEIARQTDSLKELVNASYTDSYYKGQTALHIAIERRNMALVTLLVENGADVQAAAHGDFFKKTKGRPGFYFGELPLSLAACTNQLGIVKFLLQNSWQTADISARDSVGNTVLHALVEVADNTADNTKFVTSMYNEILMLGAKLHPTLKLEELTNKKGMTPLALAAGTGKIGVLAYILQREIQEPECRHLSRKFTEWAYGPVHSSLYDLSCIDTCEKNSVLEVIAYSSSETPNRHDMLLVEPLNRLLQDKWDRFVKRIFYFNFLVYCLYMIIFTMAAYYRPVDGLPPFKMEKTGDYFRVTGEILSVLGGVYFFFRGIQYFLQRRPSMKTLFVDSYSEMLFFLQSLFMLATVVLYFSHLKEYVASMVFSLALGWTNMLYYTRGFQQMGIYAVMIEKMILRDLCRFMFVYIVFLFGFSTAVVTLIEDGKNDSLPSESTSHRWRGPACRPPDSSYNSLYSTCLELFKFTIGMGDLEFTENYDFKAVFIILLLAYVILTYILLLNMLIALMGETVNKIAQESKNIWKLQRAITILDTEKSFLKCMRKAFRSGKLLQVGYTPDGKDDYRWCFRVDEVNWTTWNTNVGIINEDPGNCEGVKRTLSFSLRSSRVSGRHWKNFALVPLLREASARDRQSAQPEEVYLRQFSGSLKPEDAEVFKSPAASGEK
T2 sequence (O35433 whole entry): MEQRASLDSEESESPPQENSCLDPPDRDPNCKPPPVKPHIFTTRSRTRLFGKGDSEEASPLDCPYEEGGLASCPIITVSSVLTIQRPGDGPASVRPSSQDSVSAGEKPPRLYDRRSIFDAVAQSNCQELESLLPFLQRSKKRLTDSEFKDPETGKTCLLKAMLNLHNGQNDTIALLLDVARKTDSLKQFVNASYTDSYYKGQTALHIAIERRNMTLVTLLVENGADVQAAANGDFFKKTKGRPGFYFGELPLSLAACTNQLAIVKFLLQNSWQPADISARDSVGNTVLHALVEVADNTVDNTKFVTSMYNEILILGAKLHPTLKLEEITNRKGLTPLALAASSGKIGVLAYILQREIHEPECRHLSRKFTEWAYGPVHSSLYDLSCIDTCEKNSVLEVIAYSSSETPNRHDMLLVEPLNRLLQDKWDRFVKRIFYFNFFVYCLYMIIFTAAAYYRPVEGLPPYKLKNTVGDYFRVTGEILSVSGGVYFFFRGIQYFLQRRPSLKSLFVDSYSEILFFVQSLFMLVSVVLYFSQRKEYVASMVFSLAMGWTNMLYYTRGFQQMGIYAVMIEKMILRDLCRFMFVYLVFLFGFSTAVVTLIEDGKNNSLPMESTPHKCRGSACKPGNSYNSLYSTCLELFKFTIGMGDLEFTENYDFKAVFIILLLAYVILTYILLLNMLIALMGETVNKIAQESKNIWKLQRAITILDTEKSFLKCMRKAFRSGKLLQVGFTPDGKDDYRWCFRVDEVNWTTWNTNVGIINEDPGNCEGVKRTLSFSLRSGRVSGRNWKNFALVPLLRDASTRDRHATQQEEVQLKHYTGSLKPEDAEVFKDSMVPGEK
Sequence of VR1/TRPV1 receptor (Q8NER1 whole entry): as the sequence (Q8NER1 whole entry) above

Row | SMILES | inhibition at 1 µM ([1]; @ 1 μM) | inhibition in vivo at 1 mg/kg ([2]; 1 mg/kg body weight po) | inhibition at 10 µM ([1]; @ 10 μM) | inhibition in vivo at 0.3 mg/kg ([2]; 0.3 mg/kg body weight po) | Ki (vanilloid receptor (VR1); table 4, capsaicin, read-out: Ki (human) Cap.) | Ki ([3]; table 4, capsaicin, read-out: Ki (rat) Cap.) | IC50 (VR1/TRPV1 receptor) | Ki (vanilloid receptor (VR1); [4]) | melting point | Ki [3, 5]
1 | CC(C(=O)NCc1ccc(C(C)(C)C)cc1OCC(C)(C)C)c1ccc(NS(C)(=O)=O)c(F)c1 (centres unmarked) [Compound 152] | 45% | 24% |  |  |  |  |  |  |  | 
2 | CC(C(=O)NCc1ccc(C(C)(C)C)cc1OCC(C)(C)C)c1ccc(NS(C)(=O)=O)c(F)c1 (centres unmarked) [Example 152, N-[4-tert-butyl-2-(2,2-dimethyl-propoxy)-benzyl]-2-(3-fluoro-4-methylsulfonamido-phenyl)-propionamide] |  |  | 63% | 33% | 3.8 nM | 2.2 nM |  |  |  | 
3 | C[C@H](C(=O)NCc1ccc(C(F)(F)F)nc1N1CCCCC1)c1ccc(NS(C)(=O)=O)c(F)c1 [Example 10, (S)-2-(3-fluoro-4-(methylsulfonamido)phenyl)-N-((2-(piperidin-1-yl)-6-(trifluoromethyl)pyridin-3-yl)methyl)propanamide] |  |  |  |  |  |  | 64 nM | 0.3 nM | 75 to 79 °C | 1.1 nM
4 | CC(C(=O)NCc1ccc(C(F)(F)F)cc1N1CCCCC1)c1ccc(NS(C)(=O)=O)c(F)c1 (centres unmarked) [Example 3] |  |  |  |  |  |  | 135 nM | 1.7 nM | 126 to 127 °C | 2.6 nM
